Here are results for 6 compounds from patent publication US8741576B2, “Heteroclitic analogs and related methods” (Epimunne Inc., priority 1999, dated 2014).

Ends that are not written are not given here.

One test concerns human PBMC CTL; 624mel tumor cell line. Briefly: Primary in vitro CTL induction from human PBMC with MAGE3.112 or analogs. Particulars: IFNγ against .221A2.1 cells with or without peptide.
Take `CC[C@H](C)[C@H](NC(=O)[C@H](CCC(=O)O)NC(=O)[C@H](C)NC(=O)[C@@H](NC(=O)[C@@H](N)CCCCN)C(C)C)C(=O)N[C@H](C(=O)N[C@@H](Cc1c[nH]cn1)C(=O)N[C@@H](Cc1ccccc1)C(=O)N[C@@H](CC(C)C)C(=O)O)C(C)C` [MAGE3.112 I5]: the “peptide-specific CTL responses in human PBMC cultures stimulated with the peptide” value is given as “Peptide-specific CTL responses were detected”.

For the compound `CC(C)C[C@H](NC(=O)[C@H](Cc1ccccc1)NC(=O)[C@H](Cc1c[nH]c2ccccc12)NC(=O)[C@@H](NC(=O)[C@H](CC(C)C)NC(=O)[C@H](CCC(=O)O)NC(=O)[C@H](C)NC(=O)[C@@H](NC(=O)[C@@H](N)CCCCN)C(C)C)C(C)C)C(=O)O` [MAGE3.112 W7], the “peptide-specific CTL responses in human PBMC cultures stimulated with the peptide” value is reported as “Peptide-specific CTL responses were detected”.

Another test deals with HLA-B7 (B*0702) (Homo sapiens, UniProt P01889). Briefly: HLA-B7 (B*0702) peptide binding, competition with radiolabeled SS 5-13a (L7→Y) peptide. Particulars: purified HLA-B7.
Take VPISHLEIL [MAGE2.170E7]: the IC50 (commonly the concentration that gives 50% inhibition) amounted to 186 nM.

Consider VPISHLGIL [MAGE2.170G7], for which the IC50 is 105 nM.

Take VPISHLHIL [MAGE2.170H7]: the IC50 is 75 nM.

VPISHLMIL [MAGE2.170M7] yielded an IC50 of 69 nM.
